{
  "source": "patent US20190062736A1",
  "about": "“IN SITU AND IN VIVO ANALYSIS OF CHROMATIN INTERACTIONS BY BIOTINYLATED DCAS9 PROTEIN” (BOARD OF REGENTS, THE UNIVERSITY OF TEXAS SYSTEM, priority 2017, published 2019)",
  "key": {"[1]": {"test_system": "human primary erythroid cells", "experiment": "qRT-PCR of β-globin mRNAs after JQ1 treatment", "type": "cell-based", "details": "JQ1 vs DMSO", "description": "(§1) Cells and Cell Culture. Human […] K562 cells were obtained from ATCC and cultured in IMDM medium containing 10% FBS and 1% penicillin/streptomycin. pEF1α-FB-dCas9 and pEF1α-BirA-V5 vectors were co-transfected into K562 cells by nucleofection using the ECM 830 Square Wave Electroporation System (Harvard Apparatus, Holliston, Mass.). Cells were plated in 96-well plates and treated with 1 μg/ml of puromycin (Sigma) and 600 μg/ml of G418 (Sigma) 48-72 hour post-transfection. Single-cell-derived clones were isolated and examined by Western blot analysis to screen for FB-dCas9 and BirA-expressing stable clones. Human primary adult erythroid progenitor cells were generated ex vivo from CD34+ HSPCs as previously described (Huang et al., 2016). Primary HSPCs from both sexes were used in this study. […] Mouse male embryonic stem cells (ESCs) were cultured on primary embryonic fibroblasts and differentiated to embryoid bodies (EBs) by LIF withdrawal for 8 days. All cultures were incubated at 37° C. in 5% CO2. All cell lines were tested for mycoplasma contamination. […]\nRNA-seq and qRT-PCR Analysis. […] Sequencing reads from all RNA-seq experiments were aligned to human (hg19) reference genome by TopHat v2.0.13 (Trapnell et al., 2009) with the parameters: --solexaquals --no-novel-juncs. Quantitative RT-PCR (qRT-PCR) was performed using the iQ SYBR Green Supermix (Bio-Rad)."}, "human erythroid cells": {"test_system": "human erythroid cells", "experiment": "Erythroid maturation by CD71/CD235a flow cytometry and cytospin after JQ1", "type": "cell-based", "details": "JQ1 vs DMSO, cell surface markers CD71 and CD235a, cytospin", "description": "as §1, with “CO2.” for “CO2. All cell lines were tested for mycoplasma contamination.”\nFlow Cytometry. Human erythroid cell differentiation was analyzed by flow cytometry using FACSCanto. […] The cells were analyzed for expression of cell surface receptors with antibodies specific for CD71 and CD235a conjugated to phycoerythrin (PE) and fluorescein isothiocyanate (FITC), respectively. Data were analyzed using FlowJo software (Ashland, Oreg.). […]"}},
  "note": "Entries after “also recorded” stand apart in the source; their conditions may differ.",
  "data": [
    {"smiles": "Cc1sc2c(c1C)C(c1ccc(Cl)cc1)=N[C@@H](CC(=O)OC(C)(C)C)c1nnc(C)n1-2", "note": "[JQ1]", "values": [
      {"measurement": "β-globin mRNAs", "setting": "[1]", "result": "significant downregulation; also recorded: significantly decreased"},
      {"measurement": "erythroid differentiation", "setting": "human erythroid cells", "result": "without apparent effects"}
    ]}
  ]
}
